In US7692014B2, “Inhibitors of the HIV integrase enzyme” (Pfizer, Inc., priority 2004, dated 2010):

Biological target: T1, Full-length wild type HIV-1 integrase (SF1) (Human immunodeficiency virus type 1 group M subtype B, UniProt P04585)
T1 construct: made in house; host or cells: E. coli BL21 (DE3), pET24a vector
Experiment: Integrase strand-transfer scintillation proximity assay
Assay type: biochemical
Conditions: IC50, integrase strand-transfer SPA
Source text: Integrase Strand-Transfer Scintillation Proximity Assay Oligonucleotides
The annealed product represents preprocessed viral ds-DNA derived from the LTR U5 sequence of the viral genome. A ds-DNA control to test for non-specific interactions was made using a 3′ di-deoxy derivative of oligonucleotide #1 annealed to oligonucleotide #2. The CA overhang at the 5′ end of the non-biotinylated strand of the ds-DNA was created artificially by using a complimentary DNA oligonucleotide shortened by 2 base pairs. This configuration eliminates the requisite 3′ processing step of the integrase enzyme prior to the strand-transfer mechanism.
Host ds-DNA was prepared as an unlabeled and [^3H]-thymidine labeled product from annealed oligonucleotide #3—5-[…]-3′ (SEQ ID NO: 3), and oligonucleotide #4—5′-[…]-3′ (SEQ ID NO: 4), both synthesized by TriLink BioTechnologies, Inc. (San Diego, Calif.). The annealed product had overhanging 3′ ends of poly(dA). […] The radiolabeled product was purified using a NENSORB cartridge and stored in stabilized aqueous solution (PerkinElmer).
Reagents: Streptavidin-coated polyvinyltoluene (PVT) SPA beads were purchased from Amersham Biosciences (Piscataway, N.J.). Cesium chloride was purchased from Shelton Scientific, Inc. (Shelton, Conn.). White, polystyrene, flat-bottom, non-binding surface, 96-well plates were purchased from Corning. All other buffer components were purchased from Sigma (St. Louis, Mo.) unless otherwise indicated. Enzyme Construction: Full-length wild type HIV-1 integrase (SF1) sequence (amino acids 1-288) was constructed in a pET24a vector (Novagen, Madison, Wis.). […] Enzyme Purification: Full length wild-type HIV Integrase was expressed in E.coli BL21 (DE3) cells and induced with 1 mM isopropyl-1 thio-β-D-galactopyranoside (IPTG) when cells reached an optical density between 0.8-1.0 at 600 nm. Cells were lysed by microfluidation in 50 mM HEPES pH 7.0, 75 mM NaCl, 5 mM DTT, 1 mM 4-(2-Aminoethyl)benzenesulfonylfluoride HCl (AEBSF). Lysate was then centrifuged 20 minutes at 11 k rpm in GSA rotor in Sorvall RC-5B at 4° C. Supernant was discarded and pellet resuspended in 50 mM HEPES pH 7.0, 750 mM NaCl, 5 mM DTT, 1 mM AEBSF and homogenized in a 40 mL Dounce homogenizer for 20 minutes on ice. Homogenate was then centrifuged 20 minutes at 11 k rpm in SS34 rotor in Sorvall RC-5B at 4° C. Supernant was discarded and pellet resuspended in 50 mM HEPES pH 7.0, 750 mM NaCl, 25 mM CHAPS, 5 mM DTT, 1 mM AEBSF. Preparation was then centrifuged 20 minutes at 11 k rpm in SS34 rotor in Sorvall RC-5B at 4° C.
Supernant was then diluted 1:1 with 50 mM HEPES pH 7.0, 25 mM CHAPS, 1 mM DTT, 1 mM AEBSF and loaded onto a Q-Sepharose column pre-equilibrated with 50 mM HEPES, pH 7.0, 375 mM NaCl, 25 mM CHAPS, 1 mM DTT, 1 mM AEBSF. The flow through peak was collected and NaCl diluted to 0.1 M with 50 mM HEPES pH 7.0, 25 mM CHAPS, 1 mM DTT, 0.5 mM AEBSF and loaded onto a SP-Sepharose column pre-equilibrated with 50 mM HEPES pH 7.0, 100 mM NaCl, 25 mM CHAPS, 1 mM DTT, 0.5 mM AEBSF. After washing the column with the equilibration buffer, a 100 to 400 mM NaCl gradient was run. The eluted integrase was concentrated and run on a S-300 gel diffusion column using 50 mM HEPES pH 7.0, 500 mM NaCl, 25 mM CHAPS, 1 mM DTT, 0.5 mM AEBSF. […] All columns were run in a 4° C. cold room.
Viral DNA Bead Preparation: Streptavidin-coated SPA beads were suspended to 20 mg/mL in 25 mM 3-morpholinopropanesulfonic acid (MOPS) (pH 7.2) and 1.0% NaN3.

`NC(=O)[C@@H]1CCCN1Cc1cn(Cc2ccc(F)cc2)c2cnc3c(=O)n(O)ccc3c12` [Example 5, 1-{[3-(4-fluorobenzyl)-7-hydroxy-6-oxo-6,7-dihydro-3H-pyrrolo[2,3-c]-1,7-naphthyridin-1-yl]methyl}-L-prolinamide] showed an IC50 of 18 nM.

Same assay, conditions: integrase strand-transfer SPA; read-out: IC50

Compared with `O=C1c2ncc3c(ccn3Cc3ccc(F)cc3)c2CCN1O` [Example 2, 3-(4-Fluorobenzyl)-7-hydroxy-3,7,8,9-tetrahydro-6H-pyrrolo[2,3-c]-1,7-naphthyridin-6-one], `O=c1c2ncc3c(c(CN4CCOCC4)cn3Cc3ccc(F)cc3)c2ccn1O` [Example 57, 3-(4-fluorobenzyl)-7-hydroxy-1-(morpholin-4-ylmethyl)-3,7-dihydro-6H-pyrrolo[2,3-c]-1,7-naphthyridin-6-one] is 4.3-fold lower in IC50: 30 nM for the first, 7 nM for the second.

`CCN1CCN(Cc2cn(Cc3ccc(F)cc3)c3cnc4c(=O)n(O)ccc4c23)CC1` [Example 8, 1[(4-ethylpiperazin-1-yl)methyl]-3-(4-fluorobenzyl)-7-hydroxy-3,7-dihydro-6H-pyrrolo[2,3-c]-1,7-naphthyridin-6-one] and `CN1CCN(Cc2cn(Cc3ccc(F)cc3)c3cnc4c(=O)n(O)ccc4c23)CC1` [Example 7, 3-(4-fluorobenzyl)-7-hydroxy-1-[(4-methylpiperazin-1-yl)methyl]-3,7-dihydro-6H-pyrrolo[2,3-c]-1,7-naphthyridin-6-one] are within 1.5-fold of each other in IC50: 14 nM for the first, 17 nM for the second.

First: O=C1CN(S(=O)(=O)c2cn(Cc3ccc(F)cc3)c3cnc4c(=O)n(O)ccc4c23)CCN1 [Example 22, 3-(4-fluorobenzyl)-7-hydroxy-1-[(3-oxopiperazin-1-yl)sulfonyl]-3,7-dihydro-6H-pyrrolo[2,3-c]-1,7-naphthyridin-6-one]
Second: CN(C)S(=O)(=O)c1cn(Cc2ccc(F)cc2)c2cnc3c(=O)n(O)ccc3c12 [Example 23, 3-(4-fluorobenzyl)-7-hydroxy-N,N-dimethyl-6-oxo-6,7-dihydro-3H-pyrrolo[2,3-c]-1-naphthyridine-1-sulfonamide]
The IC50 of the first is 1.7-fold lower: 6 nM for the first, 10 nM for the second.

First: O=c1c2ncc3c(c(COC4CCOCC4)cn3Cc3ccc(F)cc3)c2ccn1O [Example 37, 3-(4-fluorobenzyl)-7-hydroxy-1-[(tetrahydro-2H-pyran-4-yloxy)methyl]-3,7-dihydro-6H-pyrrolo[2,3-c]-1,7-naphthyridin-6-one]
Second: O=c1c2ncc3c(c(COCCOC4CCCCC4)cn3Cc3ccc(F)cc3)c2ccn1O [Example 34, 1-{[2-(cyclohexyloxy)ethoxy]methyl}-3-(4-fluorobenzyl)-7-hydroxy-3,7-dihydro-6H-pyrrolo[2,3-c]-1,7-naphthyridin-6-one]
The IC50 of the first is 2-fold lower: 23 nM for the first, 45 nM for the second.

Compared with `CN(CCc1ccccn1)Cc1cn(Cc2ccc(F)cc2)c2cnc3c(=O)n(O)ccc3c12` [Example 16, 3-(4-fluorobenzyl)-7-hydroxy-1-{[methyl (2-pyridin-2-ylethyl)amino]methyl}-3,7-dihydro-6H-pyrrolo[2,3-c]-1,7-naphthyridin-6-one], `O=c1c2ncc3c(c(COCCc4ccccn4)cn3Cc3ccc(F)cc3)c2ccn1O` [Example 33, 3-(4-fluorobenzyl)-7-hydroxy-1-[(2-pyridin-2-ylethoxy)methyl]-3,7-dihydro-6H-pyrrolo[2,3-c]-1,7-naphthyridin-6-one] is 4.3-fold higher in IC50: 6 nM for the first, 26 nM for the second.

First: O=c1c2ncc3c(c(CN4CCN(CCN5CCOCC5)CC4)cn3Cc3ccc(F)cc3)c2ccn1O [Example 58, 3-(4-fluorobenzyl)-7-hydroxy-1-{[4-(2-morpholin-4-ylethyl)piperazin-1-yl]methyl}-3,7-dihydro-6H-pyrrolo[2,3-c]-1,7-naphthyridin-6-one]
Second: O=C(CN1CCN(Cc2cn(Cc3ccc(F)cc3)c3cnc4c(=O)n(O)ccc4c23)CC1)N1CCCC1 [Example 15, 3-(4-fluorobenzyl)-7-hydroxy-1-{[4-(2-oxo-2-pyrrolidin-1-ylethyl)piperazin-1-yl]methyl}-3,7-dihydro-6H-pyrrolo[2,3-c]-1,7-naphthyridin-6-one]
The IC50 of the first is 4.4-fold higher: 22 nM for the first, 5 nM for the second. The second is the more potent here.

`CC(=O)N1CCN(C(=O)c2cn(Cc3ccc(F)cc3)c3cnc4c(=O)n(O)ccc4c23)CC1` [Example 27, 1-[(4-acetylpiperazin-1-yl)carbonyl]-3-(4-fluorobenzyl)-7-hydroxy-3,7-dihydro-6H-pyrrolo[2,3-c]-1,7-naphthyridin-6-one] and `O=C(c1cn(Cc2ccc(F)cc2)c2cnc3c(=O)n(O)ccc3c12)N1CCCC1` [Example 26, 3-(4-fluorobenzyl)-7-hydroxy-1-(pyrrolidin-1-ylcarbonyl)-3,7-dihydro-6H-pyrrolo[2,3-c]-1,7-naphthyridin-6-one] are within 1.5-fold of each other in IC50: 13 nM for the first, 9 nM for the second.

Going from `CCN(Cc1ccc(C)cc1)Cc1cn(Cc2ccc(F)cc2)c2cnc3c(=O)n(O)ccc3c12` [Example 51, 1-{[ethyl(4-methylbenzyl)amino]methyl}-3-(4-fluorobenzyl)-7-hydroxy-3,7-dihydro-6H-pyrrolo[2,3-c]-1,7-naphthyridin-6-one] to `CCN(CC)CCN(CC)Cc1cn(Cc2ccc(F)cc2)c2cnc3c(=O)n(O)ccc3c12` [Example 50, 1-{[[2-(diethylamino)ethyl] (ethyl)amino]methyl}-3-(4-fluorobenzyl)-7-hydroxy-3,7-dihydro-6H-pyrrolo[2,3-c]-1,7-naphthyridin-6-one], the IC50 falls from 17.5 nM to 11.5 nM (1.5-fold). The second is the more potent here.

Compared with `O=c1c2ncc3c(c(CN4CCCCC4CO)cn3Cc3ccc(F)cc3)c2ccn1O` (stereo not drawn) [Example 49, 3-(4-fluorobenzyl)-7-hydroxy-1-{[2-(hydroxymethyl)piperidin-1-yl]methyl}-3,7-dihydro-6H-pyrrolo[2,3-c]-1,7-naphthyridin-6-one], `CCCNCc1cn(Cc2ccc(F)cc2)c2cnc3c(=O)n(O)ccc3c12` [Example 40, 3-(4-fluorobenzyl)-7-hydroxy-1-[(propylamino)methyl]-3,7-dihydro-6H-pyrrolo[2,3-c]-1,7-naphthyridin-6-one] is 4.8-fold higher in IC50: 13 nM for the first, 62 nM for the second.

Compared with `COCCOCc1cn(Cc2ccc(F)cc2)c2cnc3c(=O)n(O)ccc3c12` [Example 36, 3-(4-fluorobenzyl)-7-hydroxy-1-[(2-methoxyethoxy)methyl]-3,7-dihydro-6H-pyrrolo[2,3-c]-1,7-naphthyridin-6-one], `O=c1c2ncc3c(c(CN4CCc5ccccc5C4)cn3Cc3ccc(F)cc3)c2ccn1O` [Example 10, 1-(3,4-dihydroisoquinolin-2(1H)-ylmethyl)-3-(4-fluorobenzyl)-7-hydroxy-3,7-dihydro-6H-pyrrolo[2,3-c]-1,7-naphthyridin-6-one] is 2-fold higher in IC50: 20 nM for the first, 40 nM for the second.

`O=c1c2ncc3c(c(S(=O)(=O)NCc4ccc(F)cc4)cn3Cc3ccc(F)cc3)c2ccn1O` [Example 25, N,3-bis(4-fluorobenzyl)-7-hydroxy-6-axo-6,7-dihydro-3H-pyrrolo[2,3-c]-1,7-naphthyridine-1-sulfonamide] and `O=c1c2ncc3c(c(S(=O)(=O)NCCc4c[nH]c5ccccc45)cn3Cc3ccc(F)cc3)c2ccn1O` [Example 21, 3-(4-fluorobenzyl)-7-hydroxy-N-{2-(1H-indol-3-yl)ethyl]-6-oxo-6,7-dihydro-3H-pyrrolo[2,3-c]-1,7-naphthyridine-1-sulfonamide] are within 1.5-fold of each other in IC50: 35 nM for the first, 46 nM for the second.

`O=C1NCCC12CCN(Cc1cn(Cc3ccc(F)cc3)c3cnc4c(=O)n(O)ccc4c13)CC2` [Example 13, 3-(4-fluorobenzyl)-7-hydroxy-1-[(1-oxo-2,8-diazaspiro[4,5]dec-8-yl)methyl]-3,7-dihydro-6H-pyrrolo[2,3-c]-1,7-naphthyridin-6-one] was tested, and the IC50 was 8 nM.
